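Abbreviation: GI50, concentration required for 50% inhibition of growth. Definition used: TGI = concentration required for complete inhibition of growth.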
Columns and labels:
Test in all cases: inhibition of tumour cell growth, NCI panel, 384-well format
[1] = test system: MDA-MB-468 breast
[2] = test system: NCI-H322M lung
[3] = test system: HT29 colon
[4] = test system: HL-60(TB) leukemia
[5] = test system: NCI-H460 NSCLC
[6] = test system: NCI-H23 lung
[7] = test system: CAKI-1 renal
[8] = test system: A498 renal
[9] = test system: NCI-H522 lung
[10] = test system: A549 NSCLC
[11] = test system: SNB-19 CNS
[12] = test system: SF-539 CNS
[13] = test system: IGROV1 ovarian
[14] = test system: M14 melanoma
[15] = test system: OVCAR-3 ovarian
[16] = test system: HS 578T breast
[17] = test system: TK-10 renal
[18] = test system: MALME-3M melanoma
[19] = test system: DU-145 prostate
[20] = test system: SK-MEL-2 melanoma
[21] = test system: MDA-MB-435 melanoma
[22] = test system: MDA-MB-231 breast
[23] = test system: SN12C renal
[24] = test system: HOP-92 NSCLC
[25] = test system: SW-620 colon
[26] = test system: KM12 colon
[27] = test system: SK-OV-3 ovarian
[28] = test system: 786-0 renal
[29] = test system: HCT-116 colon
[30] = test system: U251 glioblastoma
[31] = test system: K-562 leukemia
[32] = test system: SF-268 CNS
[33] = test system: SR leukemia
[34] = test system: UO-31 renal
[35] = test system: ACHN renal
[36] = test system: PC-3 prostate
[37] = test system: OVCAR-5 ovarian
[38] = test system: OVCAR-4 ovarian
[39] = test system: MOLT-4 leukemia
[40] = test system: SNB-75 CNS
[41] = test system: UACC-62 melanoma
[42] = test system: BT-549 breast
[43] = test system: SK-MEL-28 melanoma

C=CC(=O)Nc1cc2c(Nc3ccc(OCc4ccccn4)c(Cl)c3)ncnc2cc1OCCN1CCOCC1
TGI [1]: 40.5 nM
GI50 [2]: 18.3 nM
TGI [2]: 1140 nM
GI50 [3]: 1590 nM
TGI [3]: 2990 nM
GI50 [4]: 1530 nM
TGI [4]: 2900 nM
GI50 [5]: 1530 nM
TGI [5]: 3160 nM
GI50 [6]: 1690 nM
TGI [6]: 4250 nM
GI50 [7]: 1180 nM
TGI [7]: 2420 nM
GI50 [8]: 744 nM
TGI [8]: 2200 nM
GI50 [9]: 131 nM
TGI [9]: 1430 nM
GI50 [10]: 3110 nM
GI50 [11]: 5380 nM
TGI [11]: 18300 nM
GI50 [12]: 1250 nM
TGI [12]: 2510 nM
GI50 [13]: 27 nM
TGI [13]: 1080 nM
GI50 [14]: 1650 nM
TGI [14]: 3020 nM
GI50 [15]: 282 nM
TGI [15]: 1880 nM
GI50 [16]: 364 nM
TGI [16]: 2080 nM
GI50 [17]: 30.5 nM
TGI [17]: 1540 nM
GI50 [18]: 1700 nM
TGI [18]: 3090 nM
GI50 [19]: 499 nM
TGI [19]: 2120 nM
GI50 [20]: 1300 nM
TGI [20]: 2580 nM
GI50 [21]: 1540 nM
TGI [21]: 2960 nM
GI50 [22]: 1280 nM
TGI [22]: 2910 nM
GI50 [23]: 1100 nM
TGI [23]: 2730 nM
GI50 [24]: 1370 nM
TGI [24]: 2780 nM
GI50 [25]: 1730 nM
TGI [25]: 3160 nM
GI50 [26]: 1750 nM
TGI [26]: 3230 nM
GI50 [27]: 53.7 nM
TGI [27]: 2350 nM
GI50 [28]: 1350 nM
TGI [28]: 2670 nM
GI50 [29]: 1480 nM
TGI [29]: 2920 nM
GI50 [30]: 1520 nM
TGI [30]: 2930 nM
GI50 [31]: 1490 nM
TGI [31]: 2950 nM
GI50 [32]: 1420 nM
TGI [32]: 2810 nM
GI50 [33]: 1520 nM
TGI [33]: 2890 nM
GI50 [34]: 1080 nM
TGI [34]: 2330 nM
GI50 [35]: 98 nM
TGI [35]: 1690 nM
GI50 [36]: 1650 nM
TGI [36]: 3110 nM
GI50 [37]: 3490 nM
TGI [37]: > 100000 nM
GI50 [38]: 1130 nM
TGI [38]: 2500 nM
GI50 [39]: 1580 nM
TGI [39]: 2960 nM
GI50 [40]: 1390 nM
TGI [40]: 2920 nM
GI50 [41]: 1380 nM
TGI [41]: 2680 nM
GI50 [42]: 1160 nM
TGI [42]: 2380 nM
GI50 [43]: 1550 nM
TGI [43]: 2910 nM
